The values that follow come from patent US20250114345A1, “COMPOUNDS AND COMPOSITIONS AS CBP/P300 DEGRADERS AND USES THEREOF” (Oncopia Therapeutics, Inc. d/b/a/ SK Life Science Labs, priority 2023, published 2025).

The target of this assay is T1, p300 (Homo sapiens, UniProt Q09472).
T1 construct: host or cells: A549 P300 HiBit cells
In words: P300 degradation, HiBit technology in A549 P300 HiBit cells (2 h). The class given is cell-based. Particulars: 2 hrs post treatment; for Dmax: A549, A549 P300 HiBit cells; for DC50: A549 P300 HiBit cells. In outline: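 Endogenously HiBiT-tagged A549 cells are plated, left overnight, then treated with a compound dilution series at 37 °C and 5% CO2. At the set time, lytic detection buffer is added and plates are shaken 10 min at room temperature before luminescence is measured to derive potency and Dmax.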

Where only a bound is given, the exact number is not on record here.

T1 sequence (Q09472 whole entry): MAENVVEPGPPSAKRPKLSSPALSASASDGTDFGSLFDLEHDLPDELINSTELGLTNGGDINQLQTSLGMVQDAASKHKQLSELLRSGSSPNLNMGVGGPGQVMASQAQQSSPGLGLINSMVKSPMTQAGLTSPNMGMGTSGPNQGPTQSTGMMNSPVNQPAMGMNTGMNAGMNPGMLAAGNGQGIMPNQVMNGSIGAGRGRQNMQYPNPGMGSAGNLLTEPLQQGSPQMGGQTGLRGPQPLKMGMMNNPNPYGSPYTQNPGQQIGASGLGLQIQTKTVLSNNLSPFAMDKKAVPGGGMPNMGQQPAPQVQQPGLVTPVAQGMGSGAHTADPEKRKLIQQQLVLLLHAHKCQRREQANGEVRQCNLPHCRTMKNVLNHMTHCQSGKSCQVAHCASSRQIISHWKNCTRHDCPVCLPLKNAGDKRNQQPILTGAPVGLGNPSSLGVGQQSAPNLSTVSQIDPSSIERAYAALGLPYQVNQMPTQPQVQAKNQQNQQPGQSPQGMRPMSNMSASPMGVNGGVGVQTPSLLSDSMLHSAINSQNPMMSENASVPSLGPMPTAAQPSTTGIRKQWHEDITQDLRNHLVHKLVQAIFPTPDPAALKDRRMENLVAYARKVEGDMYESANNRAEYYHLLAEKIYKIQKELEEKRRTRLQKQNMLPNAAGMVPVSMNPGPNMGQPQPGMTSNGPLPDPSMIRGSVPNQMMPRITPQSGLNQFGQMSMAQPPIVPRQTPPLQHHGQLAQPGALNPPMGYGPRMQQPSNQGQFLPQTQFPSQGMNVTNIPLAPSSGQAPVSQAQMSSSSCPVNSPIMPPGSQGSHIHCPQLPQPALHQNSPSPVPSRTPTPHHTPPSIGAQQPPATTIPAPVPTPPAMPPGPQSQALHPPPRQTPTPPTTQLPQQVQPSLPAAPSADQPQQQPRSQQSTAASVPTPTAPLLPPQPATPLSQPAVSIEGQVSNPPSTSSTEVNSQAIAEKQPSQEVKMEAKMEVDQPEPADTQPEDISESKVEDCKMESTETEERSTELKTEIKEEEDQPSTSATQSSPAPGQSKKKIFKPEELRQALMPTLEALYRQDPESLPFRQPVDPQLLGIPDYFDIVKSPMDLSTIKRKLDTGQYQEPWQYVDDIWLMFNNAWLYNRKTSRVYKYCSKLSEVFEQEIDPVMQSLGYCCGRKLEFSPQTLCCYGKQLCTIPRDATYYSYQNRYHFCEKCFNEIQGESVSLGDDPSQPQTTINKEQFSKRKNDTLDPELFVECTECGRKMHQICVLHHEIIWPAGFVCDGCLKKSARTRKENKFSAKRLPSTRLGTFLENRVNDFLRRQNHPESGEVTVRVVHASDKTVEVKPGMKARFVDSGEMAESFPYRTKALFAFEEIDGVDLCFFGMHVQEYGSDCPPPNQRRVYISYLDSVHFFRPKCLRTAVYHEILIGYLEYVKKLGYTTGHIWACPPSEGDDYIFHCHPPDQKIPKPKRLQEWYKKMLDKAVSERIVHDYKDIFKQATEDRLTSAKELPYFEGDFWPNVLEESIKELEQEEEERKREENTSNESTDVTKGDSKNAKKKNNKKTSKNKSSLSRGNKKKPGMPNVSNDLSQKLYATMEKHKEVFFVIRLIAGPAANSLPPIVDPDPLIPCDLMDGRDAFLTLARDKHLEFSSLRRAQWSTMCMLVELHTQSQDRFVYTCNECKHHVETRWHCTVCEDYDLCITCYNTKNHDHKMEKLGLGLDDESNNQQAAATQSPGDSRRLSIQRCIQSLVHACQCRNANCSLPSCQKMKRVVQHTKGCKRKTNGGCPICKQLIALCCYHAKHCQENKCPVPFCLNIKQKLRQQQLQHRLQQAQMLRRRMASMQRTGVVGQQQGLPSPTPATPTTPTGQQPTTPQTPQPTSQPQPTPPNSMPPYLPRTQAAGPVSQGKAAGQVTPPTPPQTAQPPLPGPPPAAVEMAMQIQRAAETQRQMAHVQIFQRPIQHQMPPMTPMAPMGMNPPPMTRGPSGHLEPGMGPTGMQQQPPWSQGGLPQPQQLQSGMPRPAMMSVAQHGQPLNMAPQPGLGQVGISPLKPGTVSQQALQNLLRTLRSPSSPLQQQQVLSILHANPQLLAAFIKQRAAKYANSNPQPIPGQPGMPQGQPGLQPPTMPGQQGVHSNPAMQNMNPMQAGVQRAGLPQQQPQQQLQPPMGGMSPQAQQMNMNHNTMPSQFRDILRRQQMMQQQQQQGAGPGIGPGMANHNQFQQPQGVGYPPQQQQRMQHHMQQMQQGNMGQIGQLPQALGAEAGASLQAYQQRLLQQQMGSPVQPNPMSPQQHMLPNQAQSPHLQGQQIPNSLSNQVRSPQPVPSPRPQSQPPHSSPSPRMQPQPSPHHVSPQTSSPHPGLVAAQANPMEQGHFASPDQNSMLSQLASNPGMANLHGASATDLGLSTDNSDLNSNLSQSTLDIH

Turning to `Cc1cc2c(N3CCOc4cc(-c5ccc(C(=O)NCC#Cc6ccc7occ(C8CCC(=O)NC8=O)c7c6)nc5)ncc43)cc(C3CCOCC3)cc2n(C)c1=O` (stereo not drawn) [Example B109, 5-(4-(1,3-dimethyl-2-oxo-7-(tetrahydro-2H-pyran-4-yl)-1,2-dihydroquinolin-5-yl)-3,4-dihydro-2H-pyrido[4,3-b][1,4]oxazin-7-yl)-N-(3-(3-(2,6-dioxopiperidin-3-yl)benzofuran-5-yl)prop-2-yn-1-yl)picolinamide], the Dmax (as a rule, the largest share of the target that was removed) is > 80% and the DC50 (in general, the concentration giving 50% degradation) was < 1 nM.

`COC1CN(c2cc(N3CCOc4cc(-c5ccc(C(=O)NCC#Cc6ccc7occ(C8CCC(=O)NC8=O)c7c6)nc5)c(F)cc43)c3cc(C)c(=O)n(C)c3c2)C1` (stereo not drawn) [Example B113, N-(3-(3-(2,6-dioxopiperidin-3-yl)benzofuran-5-yl)prop-2-yn-1-yl)-5-(6-fluoro-4-(7-(3-methoxyazetidin-1-yl)-1,3-dimethyl-2-oxo-1,2-dihydroquinolin-5-yl)-3,4-dihydro-2H-benzo[b][1,4]oxazin-7-yl)picolinamide]: the Dmax is > 80% and the DC50 lay within 1 to 9.9 nM.

Take `Cc1cc2c(N3CCN(C)c4cc(-c5ccc(C(=O)NCC#Cc6cc7c(C8CCC(=O)NC8=O)cccc7o6)nc5)ncc43)cccc2n(C)c1=O` (stereo not drawn) [Example B114, 5-(4-(1,3-dimethyl-2-oxo-1,2-dihydroquinolin-5-yl)-1-methyl-1,2,3,4-tetrahydropyrido [3,4-b]pyrazin-7-yl)-N-(3-(4-(2,6-dioxo-piperidin-3-yl)benzofuran-2-yl)prop-2-yn-1-yl)picolinamide]: the greatest degradation seen (Dmax) is > 80% and the DC50 is < 1 nM.

Turning to `Cc1cc2c(N3CCCc4nc(-c5ccc(C(=O)NCC=C=Cc6ccc7occ(C8CCC(=O)NC8=O)c7c6)nc5)ncc43)cc(C3CCOCC3)cc2n(C)c1=O` (stereo not drawn) [Example B116, 5-(5-(1,3-dimethyl-2-oxo-7-(tetrahydro-2H-pyran-4-yl)-1,2-dihydroquinolin-5-yl)-5,6,7,8-tetrahydropyrido[3,2-d]pyrimidin-2-yl)-N-(4-(3-(2,6-dioxopiperidin-3-yl)benzofuran-5-yl)buta-2,3-dien-1-yl)picolinamide], the Dmax was in the range of 40 to 59% and the DC50 lay within 10 to 99 nM.

In the case of `Cc1cc(N2CCCc3nc(-c4ccc(C(=O)NCC#Cc5cc6c(C7CCC(=O)NC7=O)cccc6o5)nc4)ncc32)c2cc(C)c(=O)n(C)c2n1` (stereo not drawn) [Example B118, N-(3-(4-(2,6-dioxopiperidin-3-yl)benzofuran-2-yl)prop-2-yn-1-yl)-5-(5-(2,6,8-trimethyl-7-oxo-7,8-dihydro-1,8-naphthyridin-4-yl)-5,6,7,8-tetrahydropyrido[3,2-d]pyrimidin-2-yl) picolinamide], the Dmax is > 80% and the DC50 is 1 to 9.9 nM.

`Cc1cc(N2CCCc3nc(-c4ccc(C(=O)NCC#Cc5cc6c(C7CCC(=O)NC7=O)nccc6o5)nc4)ncc32)c2cc(C)c(=O)n(C)c2c1` (stereo not drawn) [Example B120, N-(3-(4-(2,6-dioxopiperidin-3-yl)furo[3,2-c]pyridin-2-yl)prop-2-yn-1-yl)-5-(5-(1,3,7-trimethyl-2-oxo-1,2-dihydroquinolin-5-yl)-5,6,7,8-tetrahydropyrido[3,2-d]pyrimidin-2-yl) picolinamide]: the Dmax is > 80% and the DC50 fell in the range of 1 to 9.9 nM.

In turn, `CCc1cc2c(cc(C)c(=O)n2C)c(N2CCCc3nc(-c4ccc(C(=O)NCC#Cc5ccc6occ(C7CCC(=O)NC7=O)c6c5)nc4)ncc32)n1` (stereo not drawn) [Example B121, N-(3-(3-(2,6-dioxopiperidin-3-yl)benzofuran-5-yl)prop-2-yn-1-yl)-5-(5-(7-ethyl-1,3-dimethyl-2-oxo-1,2-dihydro-1,6-naphthyridin-5-yl)-5,6,7,8-tetrahydropyrido[3,2-d]pyrimidin-2-yl)picolinamide] displayed a Dmax of 40 to 59% and a DC50 of 1 to 9.9 nM.

As for `CCc1cc2c(N3CCCc4nc(-c5ccc(C(=O)NCC#Cc6ccc7occ(C8CCC(=O)NC8=O)c7c6)nc5)ncc43)cc(C3CCOCC3)cc2n(C)c1=O` (stereo not drawn) [Example B122, N-(3-(3-(2,6-dioxopiperidin-3-yl)benzofuran-5-yl)prop-2-yn-1-yl)-5-(5-(3-ethyl-1-methyl-2-oxo-7-(tetrahydro-2H-pyran-4-yl)-1,2-dihydroquinolin-5-yl)-5,6,7,8-tetrahydropyrido [3,2-d]pyrimidin-2-yl)picolinamide], the Dmax was < 20% and the DC50 is > 1000 nM.

For the compound `Cc1cc2c(N3CCCc4nc(-c5ccc(C(=O)NCC#Cc6ccc7occ(C8CCC(=O)NC8=O)c7c6)nc5)ncc43)cc(C(C)C)cc2n(C)c1=O` (stereo not drawn) [Example B125, N-(3-(3-(2,6-dioxopiperidin-3-yl)benzofuran-5-yl)prop-2-yn-1-yl)-5-(5-(7-isopropyl-1,3-dimethyl-2-oxo-1,2-dihydroquinolin-5-yl)-5,6,7,8-tetrahydropyrido[3,2-d]pyrimidin-2-yl)picolinamide], the Dmax was > 80% and the DC50 is 1 to 9.9 nM.

For the compound `Cc1cc2c(N3CCCc4nc(-c5ccc(C(=O)NCC#Cc6cc7c(C8CCC(=O)NC8=O)cccc7o6)nc5)ncc43)cc(Cl)cc2n(C)c1=O` (stereo not drawn) [Example B126, 5-(5-(7-chloro-1,3-dimethyl-2-oxo-1,2-dihydroquinolin-5-yl)-5,6,7,8-tetrahydropyrido [3,2-d]pyrimidin-2-yl)-N-(3-(4-(2,6-dioxo-piperidin-3-yl)benzofuran-2-yl)prop-2-yn-1-yl)picolinamide], the Dmax is > 80% and the DC50 is 1 to 9.9 nM.

Turning to `Cc1cc2c(N3CCCc4nc(-c5ccc(C(=O)NCC#Cc6ccc7occ(C8CCC(=O)NC8=O)c7c6)nc5)ncc43)nc(N(C)C)cc2n(C)c1=O` (stereo not drawn) [Example B128, 5-(5-(7-(dimethylamino)-1,3-dimethyl-2-oxo-1,2-dihydro-1,6-naphthyridin-5-yl)-5,6,7,8-tetrahydropyrido[3,2-d]pyrimidin-2-yl)-N-(3-(3-(2,6-dioxopiperidin-3-yl)benzofuran-5-yl)prop-2-yn-1-yl)picolinamide], the Dmax is > 80% and the DC50 is 1 to 9.9 nM.

Take `Cc1cc2c(N3CCCc4cc(-c5ccc(C(=O)NCC#Cc6ccc7occ(C8CCC(=O)NC8=O)c7c6)nc5)c(F)cc43)cccc2n(C)c1=O` (stereo not drawn) [Example B129, N-(3-(3-(2,6-dioxopiperidin-3-yl)benzofuran-5-yl)prop-2-yn-1-yl)-5-(7-fluoro-1′,3′-dimethyl-2′-oxo-1′,2′,3,4-tetrahydro-2H-[1,5′-biquinolin]-6-yl)picolinamide]: the Dmax was > 80% and the DC50 was in the range of 1 to 9.9 nM.

The compound `Cc1cc2c(N3CCCc4nc(-c5ccc(C(=O)NCC#Cc6ccc7occ(C8CCC(=O)NC8=O)c7c6)nc5)ncc43)nc(C(C)C)cc2n(C)c1=O` (stereo not drawn) [Example B130, N-(3-(3-(2,6-dioxopiperidin-3-yl)benzofuran-5-yl)prop-2-yn-1-yl)-5-(5-(7-isopropyl-1,3-dimethyl-2-oxo-1,2-dihydro-1,6-naphthyridin-5-yl)-5,6,7,8-tetrahydropyrido[3,2-d]pyrimidin-2-yl)picolinamide] came in with a Dmax of 60 to 79% and a DC50 of 1 to 9.9 nM.

`CCc1cc(N2CCCc3cc(-c4ccc(C(=O)NCC#Cc5ccc6occ(C7CCC(=O)NC7=O)c6c5)nc4)c(F)cc32)c2cc(C)c(=O)n(C)c2c1` (stereo not drawn) [Example B133, N-(3-(3-(2,6-dioxopiperidin-3-yl)benzofuran-5-yl)prop-2-yn-1-yl)-5-(7′-ethyl-7-fluoro-1′,3′-dimethyl-2′-oxo-1′,2′,3,4-tetrahydro-2H-[1,5′-biquinolin]-6-yl)picolinamide]: the Dmax was > 80% and the DC50 was 1 to 9.9 nM.

Take `Cc1cc2c(N3CCCc4cc(-c5ccc(C(=O)NCC#Cc6ccc7occ(C8CCC(=O)NC8=O)c7c6)nc5)c(F)cc43)cc(C(C)C)cc2n(C)c1=O` (stereo not drawn) [Example B134, N-(3-(3-(2,6-dioxopiperidin-3-yl)benzofuran-5-yl)prop-2-yn-1-yl)-5-(7-fluoro-7′-isopropyl-1′,3′-dimethyl-2′-oxo-1′,2′,3,4-tetrahydro-2H-[1,5′-biquinolin]-6-yl)picolinamide]: the Dmax was > 80% and the DC50 is 10 to 99 nM.

Regarding `Cc1cc(-c2ncc(N(C)c3cc(C4CCOCC4)cc4c3cc(C)c(=O)n4C)nn2)cnc1C(=O)NCC#Cc1ccc2occ(C3CCC(=O)NC3=O)c2c1` (stereo not drawn) [Example B135, 5-(6-((1,3-dimethyl-2-oxo-7-(tetrahydro-2H-pyran-4-yl)-1,2-dihydroquinolin-5-yl) (methyl)amino)-1,2,4-triazin-3-yl)-N-(3-(3-(2,6-dioxopiperidin-3-yl)benzofuran-5-yl)prop-2-yn-1-yl)-3-methylpicolinamide], the Dmax is < 20% and the DC50 was > 1000 nM.

Take `Cc1cc2c(N3CCCc4nc(-c5ccc(C(=O)NCC#Cc6ccc7occ(C8CCC(=O)NC8=O)c7c6)nc5)ncc43)nc(N3CC[Si](C)(C)CC3)cc2n(C)c1=O` (stereo not drawn) [Example B139, 5-(5-(7-(4,4-dimethyl-1,4-azasilinan-1-yl)-1,3-dimethyl-2-oxo-1,2-dihydro-1,6-naphthyridin-5-yl)-5,6,7,8-tetrahydropyrido[3,2-d]pyrimidin-2-yl)-N-(3-(3-(2,6-dioxopiperidin-3-yl)benzofuran-5-yl)prop-2-yn-1-yl)picolinamide]: the Dmax fell in the range of 60 to 79% and the DC50 was in the range of 100 to 999 nM.

The compound `Cc1cc2c(N3CCCc4cc(-c5ccc(C(=O)NCC#Cc6ccc7occ(C8CCC(=O)NC8=O)c7c6)nc5)ccc43)cc(C3CCOCC3)cc2n(C)c1=O` (stereo not drawn) [Example B140, 5-(1′,3′-dimethyl-2′-oxo-7′-(tetrahydro-2H-pyran-4-yl)-1′,2′,3,4-tetrahydro-2H-[1,5′-biquinolin]-6-yl)-N-(3-(3-(2,6-dioxopiperidin-3-yl)benzofuran-5-yl)prop-2-yn-1-yl) picolinamide] displayed a Dmax of 60 to 79% and a DC50 of 1 to 9.9 nM.
